pKi: −log10 of the molar value. Where two headings read alike, the source gives them in different places.
Assays:
KP1010 SHV-12 = assay: Aztreonam potentiation (MPC@4), strain KP1010 SHV-12; conditions: minimum BLI concentration inhibiting growth with aztreonam 4 μg/mL; tested up to 40 μg/mL
AB1054 OXA-23 = assay: Meropenem potentiation (MPC@8), strain AB1054 OXA-23; type: cell-based, Acinetobacter baumannii; conditions: minimum BLI concentration inhibiting growth with meropenem 8 μg/mL; tested up to 20 μg/mL
KP1004 KPC-2 [1] = assay: Aztreonam potentiation (MPC@4), strain KP1004 KPC-2; conditions: minimum BLI concentration inhibiting growth with aztreonam 4 μg/mL; tested up to 40 μg/mL
KP1086 OXA-48 = assay: Biapenem potentiation (MPC@1), strain KP1086 OXA-48; type: cell-based; conditions: minimum BLI concentration inhibiting growth with biapenem 1 μg/mL; tested up to 40 μg/mL
Description: (§1) Biapenem was present in the test medium at 1 μg/mL. […] Table 3 summarizes the BLI potency of biapenem potentiation (MPC@1) for two strains overexpressing class A (KPC) and class D (OXA-48) carbapenemases. Biapenem MIC for each strain is also shown.

KP1005 CTX-M-14 = assay: Tigemonam potentiation (MPC@4), strain KP1005 CTX-M-14; conditions: minimum BLI concentration inhibiting growth with tigemonam 4 μg/mL; tested up to 40 μg/mL
KP1009 CTX-M-15 = assay: Aztreonam potentiation (MPC@4), strain KP1009 CTX-M-15; conditions: minimum BLI concentration inhibiting growth with aztreonam 4 μg/mL; tested up to 40 μg/mL
EC1010 CMY-6 = assay: Aztreonam potentiation (MPC@4), strain EC1010 CMY-6; conditions: minimum BLI concentration inhibiting growth with aztreonam 4 μg/mL; tested up to 40 μg/mL
ec302 TEM-10 = assay: Aztreonam potentiation (MPC@4), strain ec302 TEM-10; conditions: minimum BLI concentration inhibiting growth with aztreonam 4 μg/mL; tested up to 40 μg/mL
ECL1002 = assay: Aztreonam potentiation (MPC@4), strain ECL1002; conditions: minimum BLI concentration inhibiting growth with aztreonam 4 μg/mL; tested up to 40 μg/mL
[2] = molecular target: purified class A, C and D enzymes (β-lactamases) (Klebsiella pneumoniae, UniProt Q6XEC0); assay: biochemical; type: biochemical; conditions: purified OXA-48; nitrocefin (NCF) as reporter substrate
[3] = molecular target: purified class A, C and D enzymes (β-lactamases) (Klebsiella pneumoniae, UniProt Q9F663); assay: biochemical; type: biochemical; conditions: purified KPC-2; nitrocefin (NCF) as reporter substrate
[4] = molecular target: T1, purified class A, C and D enzymes (β-lactamases) (Acinetobacter baumannii, UniProt Q9L4P2); assay: biochemical; type: biochemical; conditions: purified OXA-23; nitrocefin (NCF) as reporter substrate
T1 construct: rows headed: Ki (OXA-23, NCF), uM; other: purified OXA-23; nitrocefin (NCF) as reporter substrate
T1 sequence (Q9L4P2 whole entry): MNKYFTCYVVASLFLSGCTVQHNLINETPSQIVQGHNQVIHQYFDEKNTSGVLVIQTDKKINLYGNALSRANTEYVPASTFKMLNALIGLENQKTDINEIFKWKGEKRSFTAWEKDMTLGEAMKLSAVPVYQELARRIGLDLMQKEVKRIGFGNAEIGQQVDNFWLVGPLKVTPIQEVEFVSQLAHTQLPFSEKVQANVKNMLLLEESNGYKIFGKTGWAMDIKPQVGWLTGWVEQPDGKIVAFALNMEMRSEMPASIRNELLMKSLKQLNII

[5] = molecular target: purified class A, C and D enzymes (β-lactamases) (Escherichia coli, UniProt Q9L5C7); assay: biochemical; type: biochemical; conditions: purified CTX-M-14; nitrocefin (NCF) as reporter substrate
Chain of purified class A, C and D enzymes (β-lactamases) (Escherichia coli, UniProt Q9L5C7) (Q9L5C7 entry or part of it): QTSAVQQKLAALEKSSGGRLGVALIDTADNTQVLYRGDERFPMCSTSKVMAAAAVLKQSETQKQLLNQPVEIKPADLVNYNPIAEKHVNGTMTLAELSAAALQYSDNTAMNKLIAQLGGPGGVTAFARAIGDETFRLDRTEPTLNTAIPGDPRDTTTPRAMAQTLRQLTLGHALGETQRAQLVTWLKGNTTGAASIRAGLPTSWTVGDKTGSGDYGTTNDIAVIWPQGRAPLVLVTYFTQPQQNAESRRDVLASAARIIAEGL

[6] = molecular target: purified class A, C and D enzymes (β-lactamases) (Enterobacter cloacae, UniProt P05364); assay: biochemical; type: biochemical
Chain of purified class A, C and D enzymes (β-lactamases) (Enterobacter cloacae, UniProt P05364) (P05364 21-381): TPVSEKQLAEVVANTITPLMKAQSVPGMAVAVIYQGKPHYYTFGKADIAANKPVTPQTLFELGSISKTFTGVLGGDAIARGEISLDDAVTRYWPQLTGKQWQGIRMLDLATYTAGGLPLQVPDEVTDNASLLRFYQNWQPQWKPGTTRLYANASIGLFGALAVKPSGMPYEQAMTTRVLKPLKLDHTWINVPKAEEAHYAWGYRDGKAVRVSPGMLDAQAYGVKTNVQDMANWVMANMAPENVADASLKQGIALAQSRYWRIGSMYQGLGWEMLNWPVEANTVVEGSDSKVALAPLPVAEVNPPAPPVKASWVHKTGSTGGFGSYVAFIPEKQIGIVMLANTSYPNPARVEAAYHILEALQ

[7] = molecular target: T2, purified class A, C and D enzymes (β-lactamases) (Pseudomonas aeruginosa, UniProt P24735); assay: biochemical; type: biochemical
T2 construct: rows headed: Ki (Pa-AmpC, NCF), uM; other: purified Pa-AmpC; nitrocefin (NCF) as reporter substrate
T2 sequence (P24735 whole entry): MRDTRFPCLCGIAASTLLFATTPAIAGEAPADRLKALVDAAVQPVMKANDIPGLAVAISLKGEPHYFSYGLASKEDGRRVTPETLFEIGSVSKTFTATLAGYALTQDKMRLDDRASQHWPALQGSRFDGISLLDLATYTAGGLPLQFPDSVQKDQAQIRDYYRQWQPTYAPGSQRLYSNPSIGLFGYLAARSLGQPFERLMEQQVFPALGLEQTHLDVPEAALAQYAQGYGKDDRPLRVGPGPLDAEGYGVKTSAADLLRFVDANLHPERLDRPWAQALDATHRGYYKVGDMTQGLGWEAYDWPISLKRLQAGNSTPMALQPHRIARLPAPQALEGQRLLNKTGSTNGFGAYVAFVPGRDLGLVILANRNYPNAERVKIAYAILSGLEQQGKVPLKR

ec308 SHV-5 = assay: Aztreonam potentiation (MPC@4), strain ec308 SHV-5; conditions: minimum BLI concentration inhibiting growth with aztreonam 4 μg/mL; tested up to 40 μg/mL
AB1053 OXA-72 = assay: Meropenem potentiation (MPC@8), strain AB1053 OXA-72; type: cell-based, Acinetobacter baumannii; conditions: minimum BLI concentration inhibiting growth with meropenem 8 μg/mL; tested up to 20 μg/mL
KP1004 KPC-2 [8] = assay: Biapenem potentiation (MPC@1), strain KP1004 KPC-2; type: cell-based; conditions: minimum BLI concentration inhibiting growth with biapenem 1 μg/mL; tested up to 40 μg/mL
Description: as §1

[9] = purified P99, nitrocefin (NCF) as reporter substrate
[10] = purified Pa-AmpC, nitrocefin (NCF) as reporter substrate, read-out: Ki (Pa-AmpC, NCF)

Structure (SMILES) | AZT MPC4 SHV-12 KP1010 (KP1010 SHV-12) | MPM MPC8 AB1054 OXA-23 (AB1054 OXA-23) | AZT MPC4 KPC-2 KP1004 (KP1004 KPC-2 [1]) | BPM MPC1 OXA-48 KP1086 (KP1086 OXA-48) | TIG MPC4 CTX-M-14 KP1005 (KP1005 CTX-M-14) | AZT MPC4 CTX-M-15 KP1009 (KP1009 CTX-M-15) | AZT MPC4 CMY-6 EC1010 (EC1010 CMY-6) | AZT MPC4 TEM-10 ec302 (ec302 TEM-10) | AZT MPC4 ECL1002 (ECL1002) | Ki (OXA-48, NCF), uM [2] | Ki (KPC-2, NCF), uM [3] | pKi [4] | Ki (CTX-M-14, NCF), uM [5] | Ki (P99, NCF), uM [6] | pKi [7] | AZT MPC4 SHV-5 ec308 (ec308 SHV-5) | MPM MPC8 AB1053 OXA-72 (AB1053 OXA-72) | BPM MPC1 KP1004 KPC-2 (KP1004 KPC-2 [8]) | Ki (P99, NCF), uM [6, 9] | pKi [7, 10]
O=C([O-])c1c(OCC#CCN2CCC2)ccc2c1O[B-](O)(O)CC2.[Na+].[Na+] [Compound 62, Disodium; 8-[4-(azetidin-1-yl)but-2-ynoxy]-4,4-dihydroxy-5-oxa-4-boranuidabicyclo[4.4.0]deca-1(6),7,9-triene-7-carboxylate] | X (X = MPC@4 ≤ 5 μg/mL) | X (X = MPC@1 ≤ 5 μg/mL) | X (X = MPC@4 ≤ 5 μg/mL) | X (X = MPC@1 ≤ 5 μg/mL) | Y (Y = 5 μg/mL < MPC@4 ≤ 20 μg/mL) | X (X = MPC@4 ≤ 5 μg/mL) | X (X = MPC@4 ≤ 5 μg/mL) | X (X = MPC@4 ≤ 5 μg/mL) | X (X = MPC@4 ≤ 5 μg/mL) | X (X = Ki ≤ 0.1 μM) | X (X = Ki ≤ 0.1 μM) | > 7.00 | X (X = Ki ≤ 0.1 μM) | X (key: X = Ki ≤ 0.1 μM; Y = 0.1 μM < Ki ≤ 1 μM; Z = Ki > 1 μM) | > 7.00 | X (X = MPC@4 ≤ 5 μg/mL) | X (X = MPC@1 ≤ 5 μg/mL) | X (X = MPC@1 ≤ 5 μg/mL) |  | 
O=C(O)c1c(-n2ccnn2)ccc2c1O[B-](O)(O)CC2 [Compound 13, Disodium; 4,4-dihydroxy-8-(triazol-1-yl)-5-oxa-4-boranuidabicyclo[4.4.0]deca-1(6),7,9-triene-7-carboxylate] | X (X = MPC@4 ≤ 5 μg/mL) | X (X = MPC@1 ≤ 5 μg/mL) | X (X = MPC@4 ≤ 5 μg/mL) | X (X = MPC@1 ≤ 5 μg/mL) | X (X = MPC@4 ≤ 5 μg/mL) | X (X = MPC@4 ≤ 5 μg/mL) | X (X = MPC@4 ≤ 5 μg/mL) | X (X = MPC@4 ≤ 5 μg/mL) | X (X = MPC@4 ≤ 5 μg/mL) | X (X = Ki ≤ 0.1 μM) | X (X = Ki ≤ 0.1 μM) | > 7.00 | X (X = Ki ≤ 0.1 μM) | X (key: X = Ki ≤ 0.1 μM; Y = 0.1 μM < Ki ≤ 1 μM; Z = Ki > 1 μM) | > 7.00 | X (X = MPC@4 ≤ 5 μg/mL) | X (X = MPC@1 ≤ 5 μg/mL) | X (X = MPC@1 ≤ 5 μg/mL) |  | 
CS(=O)(=O)c1ccc2c(c1C(=O)O)OB(O)CC2 [Compound 39, 2-Hydroxy-7-methylsulfonyl-3,4-dihydro-1,2-benzoxaborinine-8-carboxylic acid] | X (X = MPC@4 ≤ 5 μg/mL) | X (X = MPC@1 ≤ 5 μg/mL) | X (X = MPC@4 ≤ 5 μg/mL) | X (X = MPC@1 ≤ 5 μg/mL) | Y (Y = 5 μg/mL < MPC@4 ≤ 20 μg/mL) | X (X = MPC@4 ≤ 5 μg/mL) | X (X = MPC@4 ≤ 5 μg/mL) | X (X = MPC@4 ≤ 5 μg/mL) | X (X = MPC@4 ≤ 5 μg/mL) | X (X = Ki ≤ 0.1 μM) | X (X = Ki ≤ 0.1 μM) | > 7.00 | X (X = Ki ≤ 0.1 μM) |  |  | X (X = MPC@4 ≤ 5 μg/mL) | X (X = MPC@1 ≤ 5 μg/mL) | X (X = MPC@1 ≤ 5 μg/mL) | X (X = Ki ≤ 0.1 μM) | > 7.00
O=C([O-])c1c(CSC2CNC2)ccc2c1O[B-](O)(O)CC2.[Na+].[Na+] [Compound 19, Disodium; 8-(azetidin-3-ylsulfanylmethyl)-4,4-dihydroxy-5-oxa-4-boranuidabicyclo[4.4.0]deca-1(6),7,9-triene-7-carboxylate] | X (X = MPC@4 ≤ 5 μg/mL) | X (X = MPC@1 ≤ 5 μg/mL) | X (X = MPC@4 ≤ 5 μg/mL) | X (X = MPC@1 ≤ 5 μg/mL) | Z (Z = MPC@4 > 20 μg/mL) | X (X = MPC@4 ≤ 5 μg/mL) | X (X = MPC@4 ≤ 5 μg/mL) | Y (Y = 5 μg/mL < MPC@4 ≤ 20 μg/mL) | Y (Y = 5 μg/mL < MPC@4 ≤ 20 μg/mL) | X (X = Ki ≤ 0.1 μM) | X (X = Ki ≤ 0.1 μM) | > 7.00 | X (X = Ki ≤ 0.1 μM) | X (key: X = Ki ≤ 0.1 μM; Y = 0.1 μM < Ki ≤ 1 μM; Z = Ki > 1 μM) | > 7.00 | X (X = MPC@4 ≤ 5 μg/mL) | X (X = MPC@1 ≤ 5 μg/mL) | X (X = MPC@1 ≤ 5 μg/mL) |  | 
COc1ccc2c(c1P(=O)(O)O)OB(O)CC2 [Compound 33, (2-Hydroxy-7-methoxy-3,4-dihydro-1,2-benzoxaborinin-8-yl)phosphonic acid] | Z (Z = MPC@4 > 20 μg/mL) | Y (Y = 5 μg/mL < MPC@1 ≤ 20 μg/mL) | Z (Z = MPC@4 > 20 μg/mL) | X (X = MPC@1 ≤ 5 μg/mL) | Z (Z = MPC@4 > 20 μg/mL) | Z (Z = MPC@4 > 20 μg/mL) | Y (Y = 5 μg/mL < MPC@4 ≤ 20 μg/mL) | Z (Z = MPC@4 > 20 μg/mL) | Z (Z = MPC@4 > 20 μg/mL) | X (X = Ki ≤ 0.1 μM) | Z (Z = Ki > 1 μM) | > 7.00 | X (X = Ki ≤ 0.1 μM) |  |  | Z (Z = MPC@4 > 20 μg/mL) | Y (Y = 5 μg/mL < MPC@1 ≤ 20 μg/mL) | X (X = MPC@1 ≤ 5 μg/mL) | Y (Y = 0.1 μM < Ki ≤ 1 μM) | < 6.00

— US10618918B2, “Substituted boronic acids as antimicrobials” (priority 2015, dated 2020)
